Source: patent US20180086810A1, “T CELL RECEPTOR FUSIONS AND CONJUGATES AND METHODS OF USE THEREOF” (ALTOR BIOSCIENCE CORPORATION, priority 2000, published 2018)

Tests used:
[1] = biological target: T1, HLA-A2 (Homo sapiens, UniProt P04439, D140Y/D185E/D98H/E176V/E277Q/G131W/G231S/I119V/I121R/I166T/I218V/L300P/L318F/N151K/N90K/P208A/P217A/Q86G/Q94H/R138H/R169H/T345S); experiment: HLA-A2 loading of peptide on T2 cells, staining with HLA-A2 specific mAb BB7.2; format: cell-based; settings: T2 cells pulsed with 50 μg peptide overnight; BB7.2 staining
T1 construct: HLA-A2 surface expression on T2 cells; endogenous in cells; host or cells: T2 cells
Method: (§1) Flow cytometry and immunofluoresence staining were used to show direct binding of the fusion protein via its TCR to peptide/HLA-A2 complexes on the surface of the human B lymphoid cell line T2 (FIG. 4) • A) Staining of 149 or 264 peptide pulsed T2 cells with 0.5 μg (10 μg/ml) of 264 scTCR-IL-2 fusion protein. […] To evaluate A2 loading of each peptide, the cells were stained with the HLA-A2 specific mAb BB7.2 […] after overnight incubation of the cells with peptide.

[2] = biological target: 264 peptide/HLA-A2 complexes on the surface of the human B lymphoid cell line T2 (Homo sapiens, UniProt P04439+P04637, D140Y/D185E/D98H/E176V/E277Q/G131W/G231S/I119V/I121R/I166T/I218V/L300P/L318F/N151K/N90K/P208A/P217A/Q86G/Q94H/R138H/R169H/T345S); experiment: Flow cytometry / immunofluorescence staining of peptide-pulsed T2 cells with fusion protein (264 peptide); format: binding; settings: 0.5 μg (10 μg/ml) fusion protein; T2 cells pulsed with 264 peptide
Method: as §1

[3] = biological target: T2, 149 peptide/HLA-A2 complexes on the surface of the human B lymphoid cell line T2 (Homo sapiens, UniProt P04439+P04637, D140Y/D185E/D98H/E176V/E277Q/G131W/G231S/I119V/I121R/I166T/I218V/L300P/L318F/N151K/N90K/P208A/P217A/Q86G/Q94H/R138H/R169H/T345S); experiment: Flow cytometry / immunofluorescence staining of peptide-pulsed T2 cells with fusion protein (149 peptide); format: binding; settings: 0.5 μg (10 μg/ml) fusion protein; T2 cells pulsed with 149 peptide
T2 construct: on the surface of the human B lymphoid cell line T2; endogenous in cells; host or cells: T2 cells pulsed with 149 peptide
Method: as §1

[4] = test system: CTLL-2 cells and 264 peptide-loaded T2 cells; experiment: Cell-cell conjugation assay, CTLL-2 cells with 264 peptide-loaded T2 cells, flow cytometer; format: cell-based, murine CTLL-2, human T2
Method: (§2) In this experiment, T2 cells pulsed with either the 149 or 264 peptide. CTLL-2 cells were hydrodiethidium (HE) labeled and incubated for 20 minutes at RT with an equal number of calcein-AM labeled T2 cells pulsed with either 50 μg of 149 or 264 peptide. […] In contrast, conjugate formation was not observed with the mixture that included the 149 peptide pulsed T2 cells (B; 0.88%). Cell samples were washed one time before analysis on the flow cytometer.

[5] = test system: CTLL-2 cells and 149 peptide pulsed T2 cells; experiment: Cell-cell conjugation assay, CTLL-2 cells with 149 peptide pulsed T2 cells, flow cytometer; format: cell-based, murine CTLL-2, human T2; settings: fusion protein; HE-labeled CTLL-2 and calcein-AM labeled T2 pulsed with 50 μg 149 peptide; 20 minutes at RT
Method: as §2

Substance | HLA-A2 binding of peptide (HLA-A2 surface expression on pulsed T2 cells) [1] | binding of fusion protein to T2 cells displaying the 264 peptide [2] | binding of fusion protein to T2 cells displaying the 149 peptide [3] | conjugation between cells (conjugate formation) ([4]; 1 Ag of fusion protein, HE-labeled CTLL-2 and calcein-AM labeled T2 pulsed with 50 μg 264 peptide, 20 minutes at RT) [%] | conjugation between a T cell and an antigen presenting cell pulsed with the correct peptide ([4]; restatement of example 11) | conjugation between cells (conjugate formation) [5] [%]
LLGRNSFEV [264 peptide] | efficient HLA-A2 binding | – | – | – | – | –
264 scTCR-IL-2 fusion protein: soluble 264 single-chain TCR covalently linked to human IL-2 with EE peptide tag | – | binds specifically | not | 3.25 | able to mediate conjugation | 0.88
